Data reported in US20100076015A1, “Aminopyridine Derivatives” (VANTIA LIMITED, priority 2008, published 2010).

Biological target: T1, Human KLK1 (Homo sapiens, UniProt P06870)
T1 construct: purchased Callbiochem (Calbiochem)
Experiment: Determination of the IC50 for KLK1 (fluorogenic substrate H-DVal-Leu-Arg-AFC)
Format: biochemical
Conditions: 37° C.
Procedure, shortened: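 IC50 values reflect residual human KLK1 activity, read as initial rate from optical absorbance change at 410 nm. Incubations ran at 37° C with H-DVal-Leu-Arg-AFC as substrate across a compound concentration series.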

T1 sequence (P06870 25-262): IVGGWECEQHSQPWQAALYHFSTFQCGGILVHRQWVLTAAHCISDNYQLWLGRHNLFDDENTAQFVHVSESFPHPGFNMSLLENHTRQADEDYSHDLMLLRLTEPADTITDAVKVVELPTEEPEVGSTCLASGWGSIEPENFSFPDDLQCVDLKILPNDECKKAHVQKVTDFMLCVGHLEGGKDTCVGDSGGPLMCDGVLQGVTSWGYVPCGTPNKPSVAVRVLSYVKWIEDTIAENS

Question: For `CN1CCCC1C(=O)NC(Cc1c(F)c(F)c(F)c(F)c1F)C(=O)NCc1ccc(N)nc1` [Example 97, (R)-1-Methyl-pyrrolidine-2-carboxylic acid {(S)-1-[(6-amino-pyridin-3-ylmethyl)-carbamoyl]-2-pentafluorophenyl-ethyl}-amide], which IC50 is on record?
Answer: The IC50 was 45.2 nM.

Question: With `CCC(C)[C@@H](NC)C(=O)N[C@@H](Cc1ccc(F)cc1)C(=O)NCc1ccc(N)nc1` (stereo partly drawn) [Example 44, (R)-3-Methyl-2-methylamino-pentanoic acid [(S)-1-[(6-amino-pyridin-3-ylmethyl)-carbamoyl]-2-(4-fluoro-phenyl)-ethyl]-amide] as the molecule, how does the IC50 read?
Answer: Its IC50 is 5.4 nM.

Question: How did the IC50 turn out when `Cc1cc[nH]c1C(=O)N[C@@H](Cc1cc(F)cc(F)c1)C(=O)NCc1ccc(N)nc1` [Example 270, 3-Methyl-1H-pyrrole-2-carboxylic acid [(S)-1-[(6-amino-pyridin-3-ylmethyl)-carbamoyl]-2-(3,5-difluoro-phenyl)-ethyl]-amide] was run?
Answer: Its IC50 is 20.9 nM.

Question: With `CCN(CC)[C@@H](CC(=O)OC)C(=O)N[C@@H](Cc1ccc(F)c(F)c1)C(=O)NCc1ccc(N)nc1` [Example 364, (S)—N-[(S)-1-[(6-Amino-pyridin-3-ylmethyl)-carbamoyl]-2-(3,4-difluoro-phenyl)-ethyl]-3-diethylamino-succinamic acid methyl ester] as the molecule, how does the IC50 read?
Answer: Its IC50 is 43.7 nM.

Question: For `Cc1ccccc1C[C@H](NC(=O)[C@H]1CCCN1C(C)C)C(=O)NCc1ccc(N)nc1` [Example 121, (R)-1-Isopropyl-pyrrolidine-2-carboxylic acid {(S)-1-[(6-amino-pyridin-3-ylmethyl)-carbamoyl]-2-o-tolyl-ethyl}-amide], which IC50 is on record?
Answer: The IC50 was 11 nM.

Question: `CN1Cc2ccccc2C[C@@H]1C(=O)N[C@@H](Cc1ccc(F)c(F)c1)C(=O)NCc1ccc(N)nc1` [Example 149, (R)-2-Methyl-1,2,3,4-tetrahydro-isoquinoline-3-carboxylic acid [(S)-1-[(6-amino-pyridin-3-ylmethyl)-carbamoyl]-2-(3,4-difluoro-phenyl)-ethyl]-amide] was tested. Which IC50 did it give?
Answer: Its IC50 is 36.8 nM.

Question: `Cc1cc[nH]c1C(=O)N[C@@H](CC1CCCCC1)C(=O)NCc1ccc(N)nc1` [Example 273, 3-Methyl-1H-pyrrole-2-carboxylic acid {(S)-1-[(6-amino-pyridin-3-ylmethyl)-carbamoyl]-2-cyclohexyl-ethyl}-amide] was tested. Which IC50 did it give?
Answer: Its IC50 is 375 nM.

Question: With `Nc1ccc(CNC(=O)[C@H](Cc2ccc(F)c(F)c2)NC(=O)[C@H]2CCCN2)cn1` [Example 72, (R)-Pyrrolidine-2-carboxylic acid [(S)-1-[(6-amino-pyridin-3-ylmethyl)-carbamoyl]-2-(3,4-difluoro-phenyl)-ethyl]-amide] as the molecule, how does the IC50 read?
Answer: The IC50 was 7.2 nM.

Question: How did the IC50 turn out when `CCC(C)[C@H](C(=O)N[C@@H](Cc1ccc(F)c(F)c1)C(=O)NCc1ccc(N)nc1)N(C)C` (stereo partly drawn) [Example 178, (R)-2-Dimethylamino-3-methyl-pentanoic acid [(S)-1-[(6-amino-pyridin-3-ylmethyl)-carbamoyl]-2-(3,4-difluoro-phenyl)-ethyl]-amide] was run?
Answer: Its IC50 is 15.9 nM.

Question: With `COc1ccc2[nH]c(C(=O)N[C@@H](Cc3ccc(F)c(F)c3)C(=O)NCc3ccc(N)nc3)cc2c1` [Example 327, 5-Methoxy-1H-indole-2-carboxylic acid [(S)-1-[(6-amino-pyridin-3-ylmethyl)-carbamoyl]-2-(3,4-difluoro-phenyl)-ethyl]-amide] as the molecule, how does the IC50 read?
Answer: Its IC50 is 17.8 nM.

Question: Which IC50 does the source give for `CCC(C)[C@@H](NC)C(=O)N[C@@H](Cc1cc(F)c(F)cc1F)C(=O)NCc1ccc(N)nc1` (stereo partly drawn) [Example 48, (R)-3-Methyl-2-methylamino-pentanoic acid [(S)-1-[(6-amino-pyridin-3-ylmethyl)-carbamoyl]-2-(2,4,5-trifluoro-phenyl)-ethyl]-amide] here?
Answer: The IC50 was 8 nM.

Question: With `Cc1ccc(C[C@H](NC(=O)[C@H]2CCCN2C(C)C)C(=O)NCc2ccc(N)nc2)cc1` [Example 123, (R)-1-Isopropyl-pyrrolidine-2-carboxylic acid {(S)-1-[(6-amino-pyridin-3-ylmethyl)-carbamoyl]-2-p-tolyl-ethyl}-amide] as the molecule, how does the IC50 read?
Answer: Its IC50 is 1.4 nM.

Question: With `CN(CCc1ccccc1)CC(=O)N[C@@H](Cc1ccc(F)c(F)c1)C(=O)NCc1ccc(N)nc1` [Example 161, (S)—N-(6-Amino-pyridin-3-ylmethyl)-3-(3,4-difluoro-phenyl)-2-[2-(methyl-phenethyl-amino)-acetylamino]-propionamide] as the molecule, how does the IC50 read?
Answer: The IC50 was 93.5 nM.

Question: How did the IC50 turn out when `Nc1ccc(CNC(=O)[C@H](Cc2ccc(Cl)c(Cl)c2)NC(=O)[C@H]2C=CCN2)cn1` [Example 65, (R)-2,5-Dihydro-1H-pyrrole-2-carboxylic acid [(S)-1-[(6-amino-pyridin-3-ylmethyl)-carbamoyl]-2-(3,4-dichloro-phenyl)-ethyl]-amide] was run?
Answer: The IC50 was 2.7 nM.

Question: With `Cc1cc(C)c(C(=O)N[C@@H](Cc2ccccc2C)C(=O)NCc2ccc(N)nc2)[nH]1` [Example 244, 3,5-Dimethyl-1H-pyrrole-2-carboxylic acid {(S)-1-[(6-amino-pyridin-3-ylmethyl)-carbamoyl]-2-o-tolyl-ethyl}-amide] as the molecule, how does the IC50 read?
Answer: Its IC50 is 7.8 nM.

Question: Which IC50 does the source give for `CN1CCC[C@@H]1C(=O)N[C@@H](Cc1ccc2ccccc2n1)C(=O)NCc1ccc(N)nc1` [Example 114, (R)-1-Methyl-pyrrolidine-2-carboxylic acid {(S)-1-[(6-amino-pyridin-3-ylmethyl)-carbamoyl]-2-quinolin-2-yl-ethyl}-amide] here?
Answer: The IC50 was 28.4 nM.

Question: Which IC50 does the source give for `CC(C)N(C(C)C)[C@@H](C)C(=O)N[C@@H](Cc1ccc(F)c(F)c1)C(=O)NCc1ccc(N)nc1` [Example 350, (S)—N-[(S)-1-[(6-Amino-pyridin-3-ylmethyl)-carbamoyl]-2-(3,4-difluoro-phenyl)-ethyl]-2-diisopropylamino-propionamide] here?
Answer: The IC50 was 28.5 nM.

Question: `CN1CCC[C@@H]1C(=O)N[C@@H](Cc1ccc(Cl)cc1Cl)C(=O)NCc1ccc(N)nc1` [Example 110, (R)-1-Methyl-pyrrolidine-2-carboxylic acid [(S)-1-[(6-amino-pyridin-3-ylmethyl)-carbamoyl]-2-(2,4-dichloro-phenyl)-ethyl]-amide] was tested. Which IC50 did it give?
Answer: Its IC50 is 4 nM.

Question: How did the IC50 turn out when `CC(C)N(C)[C@@H](C)C(=O)N[C@@H](C(=O)NCc1ccc(N)nc1)C(C1CCCCC1)C1CCCCC1` [Example 433, (S)—N-{(R)-1-[(6-Amino-pyridin-3-ylmethyl)-carbamoyl]-2,2-dicyclohexyl-ethyl}-2-(isopropyl-methyl-amino)-propionamide] was run?
Answer: The IC50 was 100 nM.

Question: `C[C@@H](C(=O)N[C@@H](Cc1ccc(F)c(F)c1)C(=O)NCc1ccc(N)nc1)N(C)CC1CCCCC1` [Example 343, (S)—N-[(S)-1-[(6-Amino-pyridin-3-ylmethyl)-carbamoyl]-2-(3,4-difluoro-phenyl)-ethyl]-2-(cyclohexylmethyl-methyl-amino)-propionamide] was tested. Which IC50 did it give?
Answer: The IC50 was 91 nM.

Question: `CC(C)N1CCC[C@@H]1C(=O)N[C@@H](Cc1ccc(F)c(F)c1)C(=O)NCc1ccc(N)nc1` [Example 6, (R)-1-Isopropyl-pyrrolidine-2-carboxylic acid [(S)-1-[(6-amino-pyridin-3-ylmethyl)-carbamoyl]-2-(3,4-difluoro-phenyl)-ethyl]-amide] was tested. Which IC50 did it give?
Answer: The IC50 was 2 nM.

Question: Which IC50 does the source give for `C[C@H](C(=O)N[C@@H](Cc1ccc(F)c(F)c1)C(=O)NCc1ccc(N)nc1)N1CCCC1` [Example 356, (R)—N-[(S)-1-[(6-Amino-pyridin-3-ylmethyl)-carbamoyl]-2-(3,4-difluoro-phenyl)-ethyl]-2-pyrrolidin-1-yl-propionamide] here?
Answer: Its IC50 is 3.8 nM.

Question: `Nc1ccc(CNC(=O)[C@H](Cc2cccc3ccccc23)NC(=O)c2cc3ccccc3[nH]2)cn1` [Example 298, 1H-Indole-2-carboxylic acid {(S)-1-[(6-amino-pyridin-3-ylmethyl)-carbamoyl]-2-naphthalen-1-yl-ethyl}-amide] was tested. Which IC50 did it give?
Answer: The IC50 was 9.4 nM.

Question: For `CCCCN(C)[C@@H](C)C(=O)N[C@@H](Cc1ccc(F)cc1)C(=O)NCc1ccc(N)nc1` [Example 369, (S)—N-[(S)-1-[(6-Amino-pyridin-3-ylmethyl)-carbamoyl]-2-(4-fluoro-phenyl)-ethyl]-2-(butyl-methyl-amino)-propionamide], which IC50 is on record?
Answer: Its IC50 is 29.1 nM.

Question: Which IC50 does the source give for `C[C@H](C(=O)N[C@@H](Cc1ccc(Cl)c(Cl)c1)C(=O)NCc1ccc(N)nc1)N(C)S(C)(=O)=O` [Example 212, (R)—N-[(S)-1-[(6-Amino-pyridin-3-ylmethyl)-carbamoyl]-2-(3,4-dichloro-phenyl)-ethyl]-2-(methanesulfonyl-methyl-amino)-propionamide] here?
Answer: Its IC50 is 29.8 nM.

Question: For `CCN1CCC[C@@H]1C(=O)N[C@@H](Cc1cccc(C)c1)C(=O)NCc1ccc(N)nc1` [Example 137, (R)-1-Ethyl-pyrrolidine-2-carboxylic acid {(S)-1-[(6-amino-pyridin-3-ylmethyl)-carbamoyl]-2-m-tolyl-ethyl}-amide], which IC50 is on record?
Answer: Its IC50 is 288 nM.

Question: For `CC(C)N(C(C)C)[C@@H](C)C(=O)N[C@@H](Cc1ccc(F)cc1)C(=O)NCc1ccc(N)nc1` [Example 372, (S)—N-[(S)-1-[(6-Amino-pyridin-3-ylmethyl)-carbamoyl]-2-(4-fluoro-phenyl)-ethyl]-2-diisopropylamino-propionamide], which IC50 is on record?
Answer: The IC50 was 34.3 nM.

Question: With `CC(C)N(C)[C@@H](C)C(=O)N[C@@H](CC1CCCC2CCCCC21)C(=O)NCc1ccc(N)nc1` (stereo partly drawn) [Example 395, (S)—N-[(S)-1-[(6-Amino-pyridin-3-ylmethyl)-carbamoyl]-2-(decahydro-naphthalen-1-yl)-ethyl]-2-(isopropyl-methyl-amino)-propionamide] as the molecule, how does the IC50 read?
Answer: Its IC50 is 0.17 nM.

Question: How did the IC50 turn out when `CCC(C)[C@@H](N)C(=O)N[C@@H](Cc1ccc2ccccc2c1)C(=O)NCc1ccc(N)nc1` (stereo partly drawn) [Example 34, (R)-2-Amino-3-methyl-pentanoic acid {(S)-1-[(6-amino-pyridin-3-ylmethyl)-carbamoyl]-2-naphthalen-2-yl-ethyl}-amide] was run?
Answer: Its IC50 is 3.3 nM.

Question: With `CCC(C)[C@@H](N)C(=O)N[C@@H](Cc1csc2ccccc12)C(=O)NCc1ccc(N)nc1` (stereo partly drawn) [Example 41, (R)-2-Amino-3-methyl-pentanoic acid {(S)-1-[(6-amino-pyridin-3-ylmethyl)-carbamoyl]-2-benzo[b]thiophen-3-yl-ethyl}-amide] as the molecule, how does the IC50 read?
Answer: The IC50 was 0.76 nM.

Question: For `CCC(C)[C@H](NC)C(=O)N[C@@H](Cc1ccc(F)c(F)c1)C(=O)NCc1ccc(N)nc1` (stereo partly drawn) [Example 82, (S)-3-Methyl-2-methylamino-pentanoic acid [(S)-1-[(6-amino-pyridin-3-ylmethyl)-carbamoyl]-2-(3,4-difluoro-phenyl)-ethyl]-amide], which IC50 is on record?
Answer: The IC50 was 11.2 nM.
